This is an account of results in patent EP4671247A1, “SUBSTITUTED PYRAZOLOPYRIMIDINE COMPOUND AND PHARMACEUTICAL USE THEREOF” (Japan Tobacco Inc., priority 2023, dated 2024).

The test concerns the target T1, NLRP3 inflammasome (Homo sapiens, UniProt Q96P20).
T1 construct: host or cells: THP1-Null cells (PMA-differentiated, LPS-primed, nigericin-stimulated)
Description: Evaluation of NLRP3 inflammasome inhibitory activity (inhibition of IL-1β production in LPS/Nigericin-stimulated THP1-Null cells, AlphaLISA). Format: cell-based. The note with it: PMA, 1 µg/mL Lipopolysaccharides 3 hours, Nigericin 7.5 µmol/L 1.5 hours. The method in brief: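 THP1-Null cells were primed with 1 µg/mL LPS, then given test compound and stimulated with nigericin. IL-1β in the culture supernatant was quantified by AlphaLISA. Inhibition was calculated with blank wells set as 100% and control wells as 0%.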

The mark [1] stands for this setting: IL-1β production in THP1-Null cells, read-out: IC50.
Where [2] appears, read: IC50, IL-1β production in THP1-Null cells.
Where [3] appears, read: IL-1β production in THP1-Null cells.

Where two headings read alike, the source gives them in different places.

T1 sequence (Q96P20 whole entry): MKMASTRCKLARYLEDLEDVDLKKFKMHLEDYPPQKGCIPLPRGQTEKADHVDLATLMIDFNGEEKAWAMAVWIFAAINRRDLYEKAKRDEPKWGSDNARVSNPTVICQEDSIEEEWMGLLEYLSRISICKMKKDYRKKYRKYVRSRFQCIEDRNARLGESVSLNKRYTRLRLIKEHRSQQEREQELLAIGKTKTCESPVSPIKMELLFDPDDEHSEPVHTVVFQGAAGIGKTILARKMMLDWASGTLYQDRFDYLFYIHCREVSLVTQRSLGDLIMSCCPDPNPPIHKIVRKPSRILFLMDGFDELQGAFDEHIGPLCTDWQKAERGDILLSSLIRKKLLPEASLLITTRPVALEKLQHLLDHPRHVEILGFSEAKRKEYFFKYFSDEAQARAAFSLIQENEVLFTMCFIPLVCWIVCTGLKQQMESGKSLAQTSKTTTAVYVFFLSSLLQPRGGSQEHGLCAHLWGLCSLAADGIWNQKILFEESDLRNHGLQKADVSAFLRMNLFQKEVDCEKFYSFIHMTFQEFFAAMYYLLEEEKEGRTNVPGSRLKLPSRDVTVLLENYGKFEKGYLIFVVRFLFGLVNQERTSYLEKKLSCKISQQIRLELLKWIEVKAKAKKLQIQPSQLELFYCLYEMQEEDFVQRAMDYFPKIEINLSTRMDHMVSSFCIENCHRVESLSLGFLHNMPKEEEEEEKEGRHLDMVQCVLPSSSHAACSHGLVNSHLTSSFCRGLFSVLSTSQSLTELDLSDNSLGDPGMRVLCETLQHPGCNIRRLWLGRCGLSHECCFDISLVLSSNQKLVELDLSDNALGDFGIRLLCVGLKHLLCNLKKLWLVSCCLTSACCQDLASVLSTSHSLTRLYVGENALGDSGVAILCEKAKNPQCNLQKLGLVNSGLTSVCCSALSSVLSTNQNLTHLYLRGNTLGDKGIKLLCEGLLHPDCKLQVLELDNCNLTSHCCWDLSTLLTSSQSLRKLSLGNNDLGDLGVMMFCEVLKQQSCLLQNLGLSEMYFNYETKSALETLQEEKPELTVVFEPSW

For `Cc1nn(C2CCC2)c(C)c1-n1cc2c(=O)[nH]c(C3CC3)nc2n1` [Example 59], the 50% inhibitory concentration (IC50) under setting [1] came to 1700 nM.

The compound `Cc1cc(Br)cc(C)c1-n1cc2c(=O)[nH]c(C34CC(C3)C4)nc2n1` [Example 60] yielded an IC50 under setting [2] of 60 nM. Turning to `Cc1c(-n2cc3c(=O)[nH]c(C4CC4)nc3n2)c(C(F)(F)F)nn1C(C)C` [Example 61], the IC50 under setting [1] turned out to be 460 nM. On to `Cc1cc(Br)cc(C)c1-n1cc2c(=O)[nH]c(Cn3cccn3)nc2n1` [Example 62], for which the IC50 under setting [1] was 230 nM.

As for `Cc1cc(OC(F)F)cc(C)c1-n1cc2c(=O)[nH]c(C3CCOCC3)nc2n1` [Example 64], the half-maximal inhibitory concentration (IC50) under setting [1] was 22 nM.

Consider `Cc1c(-n2cc3c(=O)[nH]c(C4CCCC4)nc3n2)c(C(F)(F)F)nn1C(C)C` [Example 65], for which the IC50 under setting [1] stood at 300 nM. In the case of `Cc1cc(Br)cc(C)c1-n1cc2c(=O)[nH]c(CN3CCCC3=O)nc2n1` [Example 66], the half-inhibitory concentration (IC50) under setting [1] is 430 nM. Consider `COc1cc(C)c(-n2cc3c(=O)[nH]c(COCc4ccccc4)nc3n2)c(C)c1` [Example 67], for which the IC50 under setting [1] is 780 nM. The same measure, in the same setting: to `Cc1cc(Br)cc(C)c1-n1cc2c(=O)[nH]c(C3(F)CCC3)nc2n1` [Example 68] belongs 76 nM; to `Cc1cc(C2CC2)cc(C)c1-n1cc2c(=O)[nH]c(C3(F)CCC3)nc2n1` [Example 69], 67 nM; to `Cc1cc(Br)cc(C)c1-n1cc2c(=O)[nH]c(C(C)(C)F)nc2n1` [Example 70], 130 nM. Consider `Cc1cc(Br)cc(C)c1-n1cc2c(=O)[nH]c(C3CCCCC3)nc2n1` [Example 71], for which the IC50 under setting [1] worked out at 11 nM. For the compound `CC(=O)c1c2c(=O)[nH]c(C3COC3)nc2nn1-c1c(C)cc(Br)cc1C` [Example 72], the half-maximal inhibitory concentration (IC50) under setting [1] came to 57 nM. With `Cc1cc(C2CC2)cc(C)c1-n1cc2c(=O)[nH]c(C3(F)CCOCC3)nc2n1` [Example 73], the 50% inhibitory concentration (IC50) under setting [1] came out at 21 nM. As for `Cc1cc(Br)cc(C)c1-n1cc2c(=O)[nH]c(COCCC(C)(C)O)nc2n1` [Example 74], the concentration for half-maximal inhibition (IC50) under setting [1] turned out to be 190 nM. With `Cc1cc(C2CC2)cc(OC(F)F)c1-n1cc2c(=O)[nH]c(C3CC3)nc2n1` [Example 75], under setting [1], the IC50 came to 11 nM. `COCc1cc(OC(F)F)cc(C)c1-n1cc2c(=O)[nH]c(C3CC3)nc2n1` [Example 76]: the half-maximal inhibitory concentration (IC50) under setting [1] is 82 nM. Turning to `Cc1cc(Br)cc(C)c1-n1cc2c(=O)[nH]c(C3COC3)nc2n1` [Example 77], the IC50 under setting [1] was 14 nM.

In the case of `Cc1cc(C(C)(F)F)cc(C)c1-n1cc2c(=O)[nH]c(C3CC3)nc2n1` [Example 80], the half-inhibitory concentration (IC50) under setting [1] worked out at 29 nM. On the same count and under the same terms, then `Cc1cc(Br)cc(C)c1-n1cc2c(=O)[nH]c(C3CCOCC3)nc2n1` [Example 81], with 4 nM; and `Cc1cc(Br)cc(C)c1-n1nc2nc(C3CCOCC3)[nH]c(=O)c2c1C(F)F` [Example 82], with 16 nM; and `Cc1cc(C2CC2)cc(C)c1-n1nc2nc(C3CC3)[nH]c(=O)c2c1CO` [Example 83, 6-cyclopropyl-2-(4-cyclopropyl-2,6-dimethylphenyl)-3-(hydroxymethyl)-2,5-dihydro-4H-pyrazolo[3,4-d]pyrimidin-4-one], with 24 nM. Still for that read-out and setting: to `Cc1cc(C2CC2)cc(C)c1-n1nc2nc(C3CC3)[nH]c(=O)c2c1CF` [Example 84] belongs 15 nM.

Compound `Cc1cc(C(C)(C)F)cc(C)c1-n1cc2c(=O)[nH]c(C3CC3)nc2n1` [Example 85] had a concentration for half-maximal inhibition (IC50) under setting [2] of 29 nM. Regarding `Cc1cc(C2CC2)cc(C)c1-n1nc2nc(C3CC3)[nH]c(=O)c2c1C#N` [Example 87], the IC50 under setting [1] turned out to be 11 nM. On to `COCc1c2c(=O)[nH]c(C3CC3)nc2nn1-c1c(C)cc(C2CC2)cc1C` [Example 88, 6-cyclopropyl-2-(4-cyclopropyl-2,6-dimethylphenyl)-3-(methoxymethyl)-2,5-dihydro-4H-pyrazolo[3,4-d]pyrimidin-4-one], for which the 50% inhibitory concentration (IC50) under setting [1] turned out to be 18 nM. With `Cc1cc(OC(F)F)cc(C)c1-n1cc2c(=O)[nH]c(C3CC(C)OC(C)C3)nc2n1` (centres unmarked) [Example 89], under setting [1], the IC50 was 450 nM. Turning to `Cc1cc(OC(F)F)cc(C)c1-n1cc2c(=O)[nH]c(C3CCN(C)CC3)nc2n1` [Example 90], under setting [1], the IC50 amounted to 68 nM. Compound `Cc1cc(Br)cc(C)c1-n1cc2c(=O)[nH]c([C@@H]3C[C@@H]3F)nc2n1` [Example 91] displayed a half-inhibitory concentration (IC50) under setting [3] of 8 nM. On the same count and under the same terms, then `Cc1cc(Br)cc(C)c1-n1cc2c(=O)[nH]c(C3CC3F)nc2n1` (centres unmarked) [Example 92], with 7 nM. As to `COc1cc(C)c(-n2cc3c(=O)[nH]c(C45CC(CO)(CO4)C5)nc3n2)c(C)c1` [Example 94], the concentration for half-maximal inhibition (IC50) under setting [1] came out at 220 nM.

In the case of `Cc1cc(C2CC2)cc(C)c1-n1cc2c(=O)[nH]c(C34CC(CO)(CO3)C4)nc2n1` [Example 95], the IC50 under setting [1] amounted to 42 nM. On to `Cc1cc(Br)cc(C)c1-n1cc2c(=O)[nH]c(COCCO)nc2n1` [Example 96], for which the IC50 under setting [1] is 270 nM. Take `Cc1cc(Br)cc(C)c1-n1cc2c(=O)[nH]c(C3(F)CCOCC3)nc2n1` [Example 97]: the half-maximal inhibitory concentration (IC50) under setting [1] came out at 24 nM. As for `CCOCCc1nc2nn(-c3c(C)cc(Br)cc3C)cc2c(=O)[nH]1` [Example 98], the IC50 under setting [1] came out at 98 nM.

`COCCc1nc2nn(-c3c(C)cc(C4CC4)cc3C)cc2c(=O)[nH]1` [Example 99]: under setting [1], the half-inhibitory concentration (IC50) was found to be 43 nM.

Turning to `Cc1cc(C2CC2)cc(C)c1-n1cc2c(=O)[nH]c(CCF)nc2n1` [Example 101], the IC50 under setting [1] turned out to be 24 nM. Take `Cc1cc(Br)cc(C)c1-n1cc2c(=O)[nH]c(C3=CCOCC3)nc2n1` [Example 102]: the 50% inhibitory concentration (IC50) under setting [1] amounted to 8 nM. Still for that read-out and setting: to `Cc1cc(C2CC2(F)F)cc(C)c1-n1cc2c(=O)[nH]c(C3CC3(F)F)nc2n1` (centres unmarked) [Example 103] belongs 64 nM; to `Cc1cc(C2CC2)cc(C)c1-n1cc2c(=O)[nH]c(CO)nc2n1` [Example 105], 13 nM; to `Cc1cc(C2CC2)cc(C)c1-n1cc2c(=O)[nH]c(CCO)nc2n1` [Example 106], 28 nM. As to `Cc1cc(C(C)(F)F)cc(C)c1-n1cc2c(=O)[nH]c(C3(F)CCOCC3)nc2n1` [Example 107], the IC50 under setting [1] was 15 nM. `Cc1cc(Br)cc(C)c1-n1cc2c(=O)[nH]c(C3(F)COC3)nc2n1` [Example 108]: the half-inhibitory concentration (IC50) under setting [1] stood at 49 nM. Regarding `Cc1cc(C(C)(C)F)cc(C)c1-n1cc2c(=O)[nH]c(C3(F)CCOCC3)nc2n1` [Example 109], under setting [1], the 50% inhibitory concentration (IC50) is 17 nM. Still for that read-out and setting: to `Cc1cc(C2CC2)cc(F)c1-n1cc2c(=O)[nH]c(C3(F)CCOCC3)nc2n1` [Example 110] belongs 19 nM. Regarding `COc1cc(C2CC2)cc(C)c1-n1cc2c(=O)[nH]c(C3(F)CCOCC3)nc2n1` [Example 111], the concentration for half-maximal inhibition (IC50) under setting [1] was 15 nM. With `Cc1cc(Br)cc(C)c1-n1cc2c(=O)[nH]c(CN3CCCCC3)nc2n1` [Example 112], the half-inhibitory concentration (IC50) under setting [1] was found to be 140 nM. The same measure, in the same setting: then `Cc1cc(C(C)(F)F)cc(C)c1-n1cc2c(=O)[nH]c(C3(F)COC3)nc2n1` [Example 116], with 280 nM. Same read-out and setting: to `Cc1cc(C2CC2)cc(C)c1-n1cc2c(=O)[nH]c(C3=CCOCC3)nc2n1` [Example 131] belongs 5 nM; to `Cc1cc(Br)cc(C)c1-n1cc2c(=O)[nH]c(COC(F)F)nc2n1` [Example 132], 24 nM; to `Cc1cc(OC(F)F)cc(C)c1-n1cc2c(=O)[nH]c(C3=CCOCC3)nc2n1` [Example 135], 33 nM. For the compound `Cc1cc(OC(F)F)cc(C)c1-n1cc2c(=O)[nH]c(C3(F)CCOCC3)nc2n1` [Example 136], under setting [1], the IC50 was found to be 49 nM. On the same count and under the same terms, to `Cc1cc(C2CC2)cc(C)c1-n1cc2c(=O)[nH]c(COC(F)F)nc2n1` [Example 145] belongs 13 nM.
